Results published in PMC9921896 (Molecules, 2023).

Assay: Metabolite identification (MetID) in hepatocytes by LC-MS/MS
Format: in vitro ADME, human
Conditions: 80 min incubation, HR LC-MS/MS, metabolite M1, parent ion m/z 551 (375 + 176)
Excerpt: However, on the contrary, these metabolites can also be formed with higher or equivalent toxicity when compared to the parent ligand. Therefore, to gain such an understanding of metabolite toxicity, 223-2 TbB ligand was shortlisted for metabolite identification (MetID) studies as it was the least prominent CYP inhibitor among the three TbB ligands studied for CYP inhibition, as discussed in earlier sections. The metabolites’ detection and identification were accomplished by utilizing the high-resolution LC-MS/MS (HR LC-MS/MS) technique and the obtained fragmentation pattern was subsequently analyzed to propose putative structures as discussed in the following paragraph. MetID studies was initiated first for the parent 223-2 ligand by HR LC-MS/MS as its fragmentation understanding could act as a guide to potentially identify the metabolites formed after incubation with hepatocytes. Since the 223-2 TbB ligand contain N and O atoms, it could be easily protonated and it was sensitive in positive ionization mode. Consequently, it was studied using the positive fragmentation pattern by ESI-MS ^n .
To understand the fragmentation pattern of the parent compound, EPI spectrum was analyzed. […] Next, TbB ligand 223-2 was incubated (80 min) with hepatocytes and a new metabolite (M1) could be detected when compared with the control (0 min). […]

COc1cc(-c2nnn(-c3cc(OC)c(O)c(OC)c3)n2)cc(OC)c1O [223-2]
metabolite detected after incubation with hepatocytes: formation of glucuronide
